Measured values: US20080176787A1, “Parathyroid hormone analogues and methods of use” (priority 2005, published 2008)
“And” between values parts separate entries of the source, which are not always exact repeats. Equal values may be shown once. Read-outs that look alike come from different tables or passages of the source. Positions of bridges follow the written chain, without caps; N, C: chain ends. Residues, ends and D or L forms follow the SMILES beside them.

Experiment: Phase II pharmacokinetic evaluation of subcutaneous Ostabolin-C (Baseline and Week 12 subset)
Type: in vivo, human
Parameters: AUC(0-24): unit: pg·h/mL
Description: The objective of this portion of the study was to evaluate the pharmacokinetics of Ostabolin-C under steady state conditions when given subcutaneously (sc) once a day to post-menopausal female subjects with low bone mineral density.
After Screening procedures and a 2-week placebo run-in phase, subjects were to be dosed once a day for 16 weeks with either Placebo or Ostabolin-C (7.5, 15, 30 or 45 μg). A subset of subjects from all treatment groups had blood collected for measurements of Ostabolin-C in order to determine PK parameters and compare them to prior studies.
The full study duration of the study was 22 weeks, which included a 6-week screening period involving a 2-week placebo run-in and then 16 weeks of treatment. The subset of subjects for this component of the study was treated the same as all other subjects with the exception of the additional blood collections at baseline and Week 12.
All of the values from the Placebo subject except one (Baseline 2 hour time-point) were below the assay level of detection (i.e., 10 pg/ml). With very limited exceptions, all values from Placebo subjects in prior trials have also been below the levels of detection. Thus, this one value was considered to be a laboratory error and PK parameters for this placebo subject were not calculated.
No samples were obtained for Pre-dose at either Baseline or Week 12. In all prior studies, pre-treatment values have been below the levels of detection and 24-hour time points at doses of 40 ug and below have been below the levels of detection. Thus, no observable values were anticipated and for calculating PK the pre-treatment values for Baseline visit were set to zero.
For pre-dose at Week 12, it was also anticipated that the values would be below the levels of detection based on prior studies and that the 24-hour post dose value would verify this. Only two 24-hour time-point values were above the level of detection; i.e. 24 hours post dosing at Baseline for Subject 030-003 and 24 hours post dosing at Week 12 for Subject 030-0004. The values of both of these 24-hour time-points were marginally above the assay level of detection. Also, both of these subjects had values below the levels of detection for both the 4 hour and 6 hour time-points after dosing on the prior day. Thus, these values are most likely artifacts and not real values. No valid 24 hour sample for subject 032-0001 at Week 12 was obtained. […] Thus, for calculating PK parameters, the Pre-dose values for Week 12 were also set to zero.
The pharmacokinetic parameters that were estimated at Baseline and Week 12 are as follows:
AUC values were estimated by a simple summation of trapezoidal areas from each time period. Data from each dose group were summarized using simple statistics on an Excel® spreadsheet; i.e., average (AVG) and Standard Deviation (STD). It should be noted that particularly with the lower doses and associated low blood levels and at late time points, those values just above versus just below the assay limits of detection can have a disproportionate impact to AUC calculations. This adds to that variability of the calculated numbers.

[1] = Baseline, 7.5 ug, individual subjects, in pg·h/mL
[2] = Baseline, 15 ug, individual subjects, in pg·h/mL
[3] = Baseline, 45 ug, individual subjects, in pg·h/mL
[4] = Week 12, 7.5 ug, individual subjects, in pg·h/mL
[5] = Week 12, 30 ug, individual subjects, in pg·h/mL

CC[C@H](C)[C@H](NC(=O)[C@H](CCC(=O)O)NC(=O)[C@H](CO)NC(=O)[C@@H](NC(=O)[C@@H](N)CO)C(C)C)C(=O)N[C@@H](CCC(N)=O)C(=O)N[C@@H](CC(C)C)C(=O)N[C@@H](CCSC)C(=O)N[C@@H](Cc1c[nH]cn1)C(=O)N[C@@H](CC(N)=O)C(=O)N[C@@H](CC(C)C)C(=O)NCC(=O)N[C@@H](CCCCN)C(=O)N[C@@H](Cc1c[nH]cn1)C(=O)N[C@@H](CC(C)C)C(=O)N[C@@H](CC(N)=O)C(=O)N[C@@H](CO)C(=O)N[C@@H](CCSC)C(=O)N[C@@H](CCC(=O)O)C(=O)N[C@@H](CCCN=C(N)N)C(=O)N[C@H](C(=O)N[C@H]1CCC(=O)NCCCC[C@@H](C(=O)N[C@@H](CC(C)C)C(=O)N[C@@H](CC(C)C)C(=O)N[C@@H](CCC(N)=O)C(=O)N[C@@H](CC(=O)O)C(=O)N[C@H](C(N)=O)C(C)C)NC(=O)[C@H](CCCN=C(N)N)NC(=O)[C@H](CC(C)C)NC(=O)[C@H](Cc2c[nH]c3ccccc23)NC1=O)C(C)C [Ostabolin-C, [Leu^27]cyclo[Glu^22-Lys^26]-PTH-(1-31)-NH2] (H-SVSEIQLMHNLGKHLNSMERVEWLRKLLQDV-NH2; lactam 22-26)
Tmax (Baseline, 7.5 ug, individual subjects): 1.00 | Cmax (Baseline, 7.5 ug, individual subjects, in pg/mL): 27.75 and 33.15 | AUC(0-4) [1]: 11.71 and 16.25 and 88.35 | AUC(0-24) [1]: 11.71 and 16.25 and 99.67 | Cmax (Baseline, 15 ug, individual subjects, in pg/mL): 57.54 and 46.59 | AUC(0-4) [2]: 82.31 and 74.38 | AUC(0-24) [2]: 82.31 and 74.38 | Cmax (Baseline, 45 ug, individual subjects, in pg/mL): 114.54 and 233.33 | AUC(0-4) [3]: 344.39 | AUC(0-24) [3]: 370.47 | Cmax (Week 12, 7.5 ug, individual subjects, in pg/mL): 37.84 and 40.38 | AUC(0-4) [4]: 28.83 and 64.83 | AUC(0-24) [4]: 28.83 and 64.83 | AUC(0-24) (Week 12, 15 ug, individual subjects): 164.36 and 54.29* and 110.80 | Cmax (Week 12, 15 ug, individual subjects, in pg/mL): 41.98 and 33.33 and 69.33 | AUC(0-4) (Week 12, 15 ug, individual subjects, in pg·h/mL): 68.69 and 54.29 and 110.80 | Cmax (Week 12, 30 ug, individual subjects, in pg/mL): 46.75 | AUC(0-4) [5]: 142.45 and 70.73 | AUC(0-24) [5]: 214.03 | accumulation (after 12 weeks of dosing): no evidence of accumulation | Tmax (female, human, blood, sc, 7.5 ug, Baseline, 7.5 ug, AVG, read-out: Tmax): 30 min | AUC(0-t) (female, human, blood, sc, 7.5 ug, Dose 7.5, mean of Baseline and Week 12 data, read-out: AUC(0-4)): 0.0365 ng·h/mL | AUC(0-t) (female, human, blood, sc, 7.5 ug, Dose 7.5, mean of Baseline and Week 12 data, read-out: AUC(0-24)): 0.0384 ng·h/mL | Cmax (female, human, blood, sc, 7.5 ug, Dose 7.5, mean of Baseline and Week 12 data, read-out: Cmax): 0.0301 ng/mL | Tmax (female, human, blood, sc, 7.5 ug, Dose 7.5, mean of Baseline and Week 12 data, read-out: Tmax): 22.8 min | AUC(0-t) (female, human, blood, sc, 7.5 ug, Week 12, 7.5 ug, AVG, read-out: AUC(0-4)): 0.0343 ng·h/mL | AUC(0-t) (female, human, blood, sc, 7.5 ug, Week 12, 7.5 ug, AVG, read-out: AUC(0-24)): 0.0343 ng·h/mL | Cmax (female, human, blood, sc, 7.5 ug, Week 12, 7.5 ug, AVG, read-out: Cmax): 0.0331 ng/mL | Tmax (female, human, blood, sc, 7.5 ug, Week 12, 7.5 ug, AVG, read-out: Tmax): 15 min | Tmax (female, human, blood, sc, 15 ug, Baseline, 15 ug, AVG, read-out: Tmax): 19.8 min | AUC(0-t) (female, human, blood, sc, 15 ug, Dose 15, mean of Baseline and Week 12 data, read-out: AUC(0-4)): 0.0761 ng·h/mL | AUC(0-t) (female, human, blood, sc, 15 ug, Dose 15, mean of Baseline and Week 12 data, read-out: AUC(0-24)): 0.092 ng·h/mL | Cmax (female, human, blood, sc, 15 ug, Dose 15, mean of Baseline and Week 12 data, read-out: Cmax): 0.0466 ng/mL | AUC(0-t) (female, human, blood, sc, 15 ug, Week 12, 15 ug, AVG, read-out: AUC(0-4)): 0.0779 ng·h/mL | AUC(0-t) (female, human, blood, sc, 15 ug, Week 12, 15 ug, AVG, read-out: AUC(0-24)): 0.11 ng·h/mL | Cmax (female, human, blood, sc, 15 ug, Week 12, 15 ug, AVG, read-out: Cmax): 0.0482 ng/mL | AUC(0-t) (female, human, blood, sc, 30 ug, Dose 30, mean of Baseline and Week 12 data, read-out: AUC(0-4)): 0.123 ng·h/mL | AUC(0-t) (female, human, blood, sc, 30 ug, Dose 30, mean of Baseline and Week 12 data, read-out: AUC(0-24)): 0.129 ng·h/mL | Cmax (female, human, blood, sc, 30 ug, Dose 30, mean of Baseline and Week 12 data, read-out: Cmax): 0.0701 ng/mL | Tmax (female, human, blood, sc, 30 ug, Dose 30, mean of Baseline and Week 12 data, read-out: Tmax): 22.8 min | Tmax (female, human, blood, sc, 45 ug, Baseline, 45 ug, AVG, read-out: Tmax): 30 min
